{"source": "patent US20090226956A1", "about": "“RUNX-MEDIATED ACTION OF NUCLEAR RECEPTORS AND UTILITIES THEREOF” (University of Southern California, priority 2008, published 2009)", "key": {"Runx2 [1]": {"test_system": "Runx2", "conditions": "same cells as Raloxifene; cited from earlier work"}, "Runx2 [2]": {"test_system": "Runx2", "assay": "6XOSE2-Luc Runx2 reporter luciferase assay, COS7 cells transfected with Runx2 and AR", "type": "cell-based, human", "description": "As COS7 cells were transiently transfected in 96 well format with the Runx2 reporter 6XOSE2-Luc (firefly luciferase) along with expression vectors encoding human Runx2, AR, and GR as indicated. […] B. Parallel sets of COS7 cell cultures were transfected with either the AR reporter MMTV-Luc or the Runx2 reporter 6XOSE-Luc, along with 1 ng each of AR and Runx2 expression plasmids. […] Bar graphs represent luciferase assays, in which the reporters OSE2-Luc (left panel) and MMTV-Luc (right panel), were transfected with expression plasmids encoding wild type AR (WT) or a mutant AR lacking the AF1 domain (ΔAF1) as indicated.\nWe examined the effect of AR on the transcriptional potential of Runx2 using transient transfection reporter assays COS7 cells, which express neither transcription factor, were transfected with plasmids encoding Runx2 and AR, along with the 6XOSE2-Luc reporter, in which luciferase is controlled by six copies of the OSE2 Runx2 binding site (53).\nSince AR is a potent transcription factor, we investigated if its transactivation function was required for repressing Runx2. […] MMTV-Luc and 6XOSE2-Luc were used as reporters for monitoring the transactivation and Runx2 repression functions of AR, respectively, with equal amounts of each of AR and Runx2 expression plasmids co-transfected in both assays.\nUnless otherwise stated, these hormones were applied at a final concentration of 10 nM in 0.001% ethanol as the vehicle.\n(§5) Transient transfection, luciferase, co-IP and ChIP—These assays were performed essentially as previously described (34, 51)."}, "Runx1": {"test_system": "Runx1", "conditions": "COS7, 6XOSE2-luc (FIG. 25)", "description": "The ability of sex steroids and their receptors to repress Runx1 was determined by transient transfection assays of COS7 cells as described earlier for Runx2.\nWe tested the effects of ERαX, ERβ, AR and GR on Runx1 activity using the same assay employed for Runx2."}, "[3]": {"test_system": "Runx2 occupancy of the endogenous OSE2 site", "conditions": "Day-9 MC3T3-E1, DHT four hours, ChIP", "description": "Occupancy was quantified by qPCR of an OC promoter fragment containing the OSE2 site or a fragment of the insulin promoter as control.\nTo test whether the DNA-binding exclusion model operates in vivo, we investigated whether AR interferes with binding of Runx2 to its chromatin-embedded OSE2 element at the OC promoter in MC3T3-E1 cells.\nA slight modification was introduced for immunoprecipitation using MC3T3-E1 and PC3-AR cells. These cells were plated in a 150 mm dish in phenol-red free media supplemented with 5% CSS. The MC3T3-E1 cell culture medium was further supplemented, commencing at confluence, with 50 μg/ml ascorbic acid and 150 mM β-glycerophosphate."}, "[4]": {"test_system": "endogenous Runx2 in PC3-AR cells", "conditions": "DHT 24 hrs; not in PC3-GFP cells", "excerpt": "B. PC3 cell that had been stably transduced with lentiviruses encoding AR or GFP were transiently transfected with the MMTV-Luc (left) or 6XOSE2-Luc (middle) reportersk, followed by luciferase assay, or, they were subjected to RT-qPCR analysis of the OC gene (right). […] Mean±SEM, n=4.\nTo study the influence of AR on Runx2 activity and on the Runx2 target gene OC in PCa cells, AR was first stably introduced into PC3 cells by retroviral infection. The transduced cells, designated PC3-AR, presumably resemble PCa cells that endogenously express both Runx2 and wild type AR. These cells were transiently transfected with the MMTV-Luc or the 6XOSE2-Luc reporter plasmid. PC3-GFP cells, transduced with a GFP-encoding retrovirus, were used as control.\nQuantitative real time RT-PCR—Total RNA was isolated using Aurum Total RNA® kit (Bio-Rad, Hercules, Calif.) following the manufacturer's recommendations. One microgram of total RNA was reverse-transcribed using the Superscript III kit (Invitrogen) and the cDNA was subjected to real-time PCR amplification (RTqPCR) using iQ™ SYBR Green Supermix (Bio-Rad)."}, "Runx2 in SaOS-2 cells": {"test_system": "Runx2 in SaOS-2 cells", "conditions": "DHT 24 hrs", "description": "Data are representative of at least three independent experiments.\nas §5"}, "[5]": {"test_system": "endogenous Runx proteins in PC3 cells", "conditions": "6XOSE2-luciferase, 10 nM DHT", "excerpt": "Interaction between AR and Runx proteins in PC3 cells that express endogenous Runx proteins. A. EMSA assessing Runx protein activity using an OSE2 ^32P-labeled probe. Whole cell extracts from PC3 cells were shifted and supershifted with Runx1 and Runx2 antibodies respectively and successfully competed with WT 10× and 100×OSE2 unlabeled probe. […] Confocal of endogenous Runx (fluorescein) proteins and AR (rhodamine) under transfected or untransfected AR conditions."}, "Runx2 [6]": {"test_system": "Runx2", "assay": "6XOSE2-luc Runx2 reporter luciferase assay, COS7 cells transfected with Runx2 and ERβ", "type": "cell-based, human", "conditions": "COS7, 6XOSE2-luc, 10 nM, 24 h", "text": "(§1) FIG. 1. ERα inhibits Runx2. (A,B) COS7 cells were transiently transfected with the Runx reporter 6XOSE2-luc (firefly) along with expression vectors encoding human Runx2 (A), Runx1 (B), ERα, and/or ERβ as indicated. […] In each experiment, the firefly luciferase results were corrected for the expression of a co-transfected CMV-renilla luciferase construct (internal control), except for Panel A, where the renilla luciferase values are shown in the inset graph. […] All data are presented as mean values±SEM, with n=4 dish replicates of a representative experiment, repeated at least 3 times.\nCells were seeded at a density of 10,000 per well in 96-well plates and grown in 5% charcoal-stripped serum (CSS)-containing phenol red-free medium for 24 h. The indicated plasmids (50 ng reporter, 52 ng total) were transfected using ‘LTX and Plus reagent’ according to manufacture's specification (Invitrogen, Carlsbad, Calif.). Equimolar amounts of the empty vectors pcDNA 3.1 and pSG5 were used as controls, and the pCAT-basic promoter-less plasmid was used as ‘filler’ DNA. Under these conditions the total amounts of promoter equivalents (molar) and DNA mass (ng) were the same in all wells of a particular experiment. […] Luciferase activity was determined using the dual-assay luciferase kit (Promega, Madison, Wis.)."}, "Runx2 [7]": {"test_system": "Runx2", "assay": "6XOSE2-luc Runx2 reporter luciferase assay, COS7 cells transfected with Runx2 and ERα", "type": "cell-based, human", "text": "as §1\n(§2) FIG. 6. Various effects of SERM-bound ERα on Runx2. […] (B, C) COS7 cells were transfected with Runx2 and its 6XOSE2-luc reporter (B), or with ERE-luc (C) along with expression vectors coding for the indicated ER isoforms or fragments. […] All data are presented as mean values±SEM, with n=4 dish replicates of a representative experiment, repeated at least 3 times.\nCells were seeded at a density of 10,000 per well in 96-well plates and grown in 5% charcoal-stripped serum (CSS)-containing phenol red-free medium for 24 h. The indicated plasmids (50 ng reporter, 52 ng total) were transfected using ‘LTX and Plus reagent’ according to manufacture's specification (Invitrogen, Carlsbad, Calif.). Equimolar amounts of the empty vectors pcDNA 3.1 and pSG5 were used as controls, and the pCAT-basic promoter-less plasmid was used as ‘filler’ DNA. Under these conditions the total amounts of promoter equivalents (molar) and DNA mass (ng) were the same in all wells of a particular experiment. As an internal control, 0.01 ng of tk-Renilla-luc or CMV-renilla-luc (Promega, Madison, Wis.) was used for correction of transfection efficiency. Cells were subsequently treated with vehicle (EtOH, 0.01%) or the indicated ligands for 24 h. Luciferase activity was determined using the dual-assay luciferase kit (Promega, Madison, Wis.).\nCOS7 cells were transiently transfected with the indicated expression vectors along with a reporter for either Runx2 (6XOSE2-luciferase) or the classical transcriptional activation activity of ER (ERE-luciferase)."}, "Runx2 in T47D cells": {"test_system": "Runx2 in T47D cells", "assay": "6XOSE2-luc Runx2 reporter assay in T47D breast cancer cells", "type": "cell-based, human", "conditions": "100 nM", "text": "as §2\n(§3) COS7 cells were maintained in Dulbeco Modified Eagle Medium (DMEM) and 5% fetal bovine serum (FBS). The mouse osteoblastic cell line MC3T3-E1 was maintained in α-MEM and 10% FBS. Runx-reporter osteoblasts were generated by stable transfection of MC3T3-E1 cells with the 6XOSE2-luc reporter construct using the calcium phosphate coprecipitation method and hygromycin ([…]) as the selection drug. Resistance to hygromycin was conferred by cotransfection of the pCEP plasmid (1:15 molar ratio). To support development of the osteoblast phenotype, cells were treated with 50 μg/ml ascorbic acid and […] β-glycerophosphate commencing at confluence. The human breast cancer cell lines MDA-MB-231, T47D, and MCF7 were maintained in DMEM and 5% FBS.\n(§4) Cells were seeded at a density of 10,000 per well in 96-well plates and grown in 5% charcoal-stripped serum (CSS)-containing phenol red-free medium for 24 h. […] Luciferase activity was determined using the dual-assay luciferase kit (Promega, Madison, Wis.)."}, "Runx2 in MCF7 cells": {"test_system": "Runx2 in MCF7 cells", "assay": "6XOSE2-luc Runx2 reporter assay in MCF7 breast cancer cells", "type": "cell-based, human", "conditions": "100 nM", "text": "as §2, §3, §4"}, "ERα": {"molecular_target": "T1, ERα (Homo sapiens, UniProt P03372)", "T1 sequence (P03372 1-595)": "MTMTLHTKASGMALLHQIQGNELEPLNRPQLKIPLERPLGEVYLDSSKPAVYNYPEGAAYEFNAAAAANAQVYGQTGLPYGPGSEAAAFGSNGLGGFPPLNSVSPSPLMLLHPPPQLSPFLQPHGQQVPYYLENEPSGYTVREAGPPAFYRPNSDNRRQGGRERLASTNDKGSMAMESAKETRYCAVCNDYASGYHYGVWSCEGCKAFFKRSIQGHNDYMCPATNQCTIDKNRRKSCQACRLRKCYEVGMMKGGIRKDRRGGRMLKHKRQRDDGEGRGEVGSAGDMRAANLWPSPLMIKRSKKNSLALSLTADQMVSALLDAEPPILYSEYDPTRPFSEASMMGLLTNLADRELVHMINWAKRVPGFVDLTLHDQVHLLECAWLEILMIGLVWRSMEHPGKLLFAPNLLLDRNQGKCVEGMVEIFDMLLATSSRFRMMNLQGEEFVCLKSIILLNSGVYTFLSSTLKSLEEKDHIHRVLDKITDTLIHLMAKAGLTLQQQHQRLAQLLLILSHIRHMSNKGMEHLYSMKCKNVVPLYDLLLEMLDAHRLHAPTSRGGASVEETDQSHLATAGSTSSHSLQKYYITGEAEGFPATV", "assay": "ERE-luc ER reporter luciferase assay in COS7 cells", "type": "cell-based", "conditions": "100 nM (FIG. 6C)"}, "[8]": {"test_system": "Runx2 in MDA-MB-231 cells", "assay": "6XOSE2-luc Runx2 reporter assay in MDA-MB-231 breast cancer cells expressing ERα", "type": "cell-based, human", "conditions": "ERα expressed; E2 10 nM, OHT 100 nM, ICI 182780 100 nM", "text": "as §2, §3, §4"}, "ERα/Runx2 complexes": {"molecular_target": "ERα/Runx2 complexes (Homo sapiens, UniProt P03372)", "sequence (Q13950 1-507 isoform Q13950-2 partner, one chain of several)": "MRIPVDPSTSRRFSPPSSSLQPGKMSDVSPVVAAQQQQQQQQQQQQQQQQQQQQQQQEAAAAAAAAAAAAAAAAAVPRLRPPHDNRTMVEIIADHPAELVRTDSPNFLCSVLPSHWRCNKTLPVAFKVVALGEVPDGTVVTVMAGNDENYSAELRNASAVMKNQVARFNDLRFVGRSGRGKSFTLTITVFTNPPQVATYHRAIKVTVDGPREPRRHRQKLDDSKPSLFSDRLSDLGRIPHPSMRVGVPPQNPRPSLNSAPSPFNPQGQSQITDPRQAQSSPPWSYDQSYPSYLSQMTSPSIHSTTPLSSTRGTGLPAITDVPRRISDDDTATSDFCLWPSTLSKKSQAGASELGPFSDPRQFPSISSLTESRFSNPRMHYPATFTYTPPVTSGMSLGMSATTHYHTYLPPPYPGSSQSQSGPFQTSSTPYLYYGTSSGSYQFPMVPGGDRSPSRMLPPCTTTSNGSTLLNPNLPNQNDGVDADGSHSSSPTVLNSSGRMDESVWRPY", "conditions": "COS7; E2 10 nM, OHT 100 nM, ICI 182780 100 nM; 24 h", "description": "Cells were seeded at a density of 300,000 per well in six-well plates and grown in 5% CSS-containing phenol red-free medium for 24 h. Cells were transfected when indicated, and 24 h later they were lysed in a 50 mM Tris-HCl buffer (pH 7.4) containing 150 mM NaCl, 1 mM EDTA, 1% Triton X-100, and fresh Protease Inhibitors Cocktail (1%; Sigma, St. Louis, Mo.). […] The remaining lysate was immunoprecipitated with approximately 3 μg of the specified antibody and 30 μl Protein-G beads (Amersham Biosciences Freiburg, Germany) and washed three times for 5 min each with the same buffer, followed by centrifugation at 4,000 rpm for 1 min. […] Input and immunoprecipitates were analyzed by Western blot analysis."}, "AR DBD": {"molecular_target": "AR DBD (Homo sapiens, UniProt P10275 P10275:540-647)", "sequence (P10275 540-647, one chain of several)": "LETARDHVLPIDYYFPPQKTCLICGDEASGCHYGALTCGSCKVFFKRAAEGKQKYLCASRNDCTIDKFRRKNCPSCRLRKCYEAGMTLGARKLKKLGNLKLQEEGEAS", "assay": "EMSA; GST-AR-DBD alone forms no complex with OSE2", "conditions": "tags: GST fusion, E. coli BL21(DE3); label: 32P", "excerpt": "Where indicated, the binding reaction also contained purified GST, GST-AR-DBD, GST-AR-DBD^A573D (see FIG. 14G), or anti-Runx2 specific antibodies, either native (n) or denaturated by boiling (b). […] Arrow indicates Runx2/OSE2 complex.\nThe source for Runx2 was MC3T3-E1 cell extract and recombinant GST-AR-DBD was purified from E. coli."}, "[9]": {"conditions": "COS7, 6XOSE2-Luc, 10 nM, 24 hrs"}}, "data": [{"molecule": "CC/C(=C(\\c1ccccc1)c1ccc(OCCN(C)C)cc1)c1ccccc1", "note": "[Tamoxifene]", "values": [{"measurement": "Effect on Runx2 activity in COS7 cells (Khalid et al., 2008, FIG. 6B)", "setting": "Runx2 [1]", "result": "small inhibitory effect"}]}, {"molecule": "C[C@]12CCC(=O)C[C@@H]1CC[C@@H]1[C@@H]2CC[C@]2(C)[C@@H](O)CC[C@@H]12", "note": "[DHT, dihydrotestosterone]", "values": [{"measurement": "Effect on Runx2 activity in the absence of AR", "setting": "Runx2 [2]; [9]", "result": "did not affect"}, {"measurement": "Effect on Runx2 activity in the presence of AR", "setting": "Runx2 [2]; [9]", "result": "repressed Runx2 activity to basal levels"}, {"measurement": "Effect on Runx2 activity in the presence of GR", "setting": "Runx2 [2]; COS7, 6XOSE2-Luc, DHT 10 nM", "result": "did not alter"}, {"measurement": "Effect of AR+DHT on Runx1 activity", "setting": "Runx1", "result": "robustly inhibited"}, {"measurement": "Decrease of Runx2 occupancy of the endogenous OSE2 site", "setting": "[3]", "result": 2.4, "unit": "fold"}, {"measurement": "6XOSE2-Luc reporter activity in PC3-AR cells", "setting": "[4]", "result": "strong repression"}, {"measurement": "OC expression (RT-qPCR) in PC3-AR cells", "setting": "[4]", "result": "strongly inhibited"}, {"measurement": "6XOSE2-Luc luciferase activity in SaOS-2 cells", "setting": "Runx2 in SaOS-2 cells", "result": "inhibited luciferase activity"}, {"measurement": "Endogenous Runx-mediated activity in PC3 cells with transfected AR", "setting": "[5]", "result": "also inhibited"}, {"measurement": "Expression of both 6XOSE2-Luc and OC on day 9", "setting": "MC3T3-E1 cells; MC3T3-E1, DHT chronically since confluence or 24 hrs prior to harvest", "result": "strongly inhibited"}, {"measurement": "AR protein levels in early and late MC3T3-E1 cultures", "setting": "MC3T3-E1 cells; immunofluorescence, day 1 and day 9, DHT 24 hrs", "result": "strongly induced"}]}, {"molecule": "C[C@]12CC[C@@H]3c4ccc(O)cc4CC[C@H]3[C@@H]1CC[C@@H]2O", "note": "[E2, estradiol]", "values": [{"measurement": "Effect on Runx2 activity in the presence of ERβ", "setting": "Runx2 [6]", "result": "did not inhibit"}, {"measurement": "Inhibition of Runx2 activity", "setting": "Runx2 [7]; COS7, 6XOSE2-luc, in the presence of ERα, E2 10 nM, 24 h (FIG. 1A)", "result": 76, "unit": "%"}]}, {"molecule": "CC(=O)O[C@]1(C(C)=O)CC[C@H]2[C@@H]3C[C@H](C)C4=CC(=O)CC[C@]4(C)[C@H]3CC[C@@]21C", "note": "[MPA]", "values": [{"measurement": "Effect of MPA-stimulated AR on Runx activities", "setting": "Runx2 [2]; COS7, 6XOSE2-luciferase, Runx2 and Runx1 (FIG. 21)", "result": "inhibited Runx activities"}]}, {"molecule": "C[C@]12CC[C@@H]3c4ccc(O)cc4C[C@@H](CCCCCCCCC[S+]([O-])CCCC(F)(F)C(F)(F)F)[C@H]3[C@@H]1CC[C@@H]2O", "note": "(stereo partly shown) [ICI 182780]", "values": [{"measurement": "Effect on Runx2 in T47D cells", "setting": "Runx2 in T47D cells", "result": "slightly stimulated"}, {"measurement": "Effect on Runx2 in MCF7 cells", "setting": "Runx2 in MCF7 cells", "result": "slightly stimulated"}, {"measurement": "Partial agonist effect on an ERE-containing template", "setting": "ERα", "result": "weak"}, {"measurement": "Effect on 6XOSE2 Runx2 reporter in MDA-MB-231 cells", "setting": "[8]", "result": "slight if any inhibitory effect"}, {"measurement": "ERα/Runx2 interaction in co-IP (formation of ERα/Runx2 complexes)", "setting": "ERα/Runx2 complexes", "result": "strongly induced"}, {"measurement": "Stimulation of Runx2 activity", "setting": "Runx2 [7]; COS7, 6XOSE2-luc, ERα, ICI 182780 100 nM, 24 h (FIG. 6B)", "result": 3.1, "unit": "fold"}]}, {"molecule": "CC/C(=C(\\c1ccc(O)cc1)c1ccc(OCCN(C)C)cc1)c1ccccc1", "note": "[OHT, hydroxytamoxifen]", "values": [{"measurement": "Effect on Runx2 in T47D cells", "setting": "Runx2 in T47D cells", "result": "uniformly inhibitory"}, {"measurement": "Effect on Runx2 in MCF7 cells", "setting": "Runx2 in MCF7 cells", "result": "uniformly inhibitory"}, {"measurement": "Effect on 6XOSE2 Runx2 reporter in MDA-MB-231 cells", "setting": "[8]", "result": "as strongly as E2"}, {"measurement": "Effect on Runx2 when bound to the ERαDBD-LBD", "setting": "Runx2 [7]; COS7, 6XOSE2-luc, ERαDBD-LBD fragment, 100 nM", "result": "stimulatory effect"}, {"measurement": "Effect on Runx2 activity", "setting": "Runx2 [7]; COS7, 6XOSE2-luc, full-length ERα, 100 nM, 24 h", "result": "slightly inhibited"}]}, {"molecule": "O=C(c1ccc(OCCN2CCCCC2)cc1)c1c(-c2ccc(O)cc2)sc2cc(O)ccc12", "note": "[Raloxifene]", "values": [{"measurement": "Effect on Runx2 activity in COS7 cells (Example V)", "setting": "Runx2 [7]; 6XOSE2-luciferase, 100 nM Raloxifene, 24 hrs", "result": "small effect is stimulatory"}]}, {"molecule": "OSE2 probe (dsDNA) DNA 1: AGCTGCAATCACCAACCACAGCA DNA 2: TGCTGTGGTTGGTGATTGCAGCT", "values": [{"measurement": "binding result", "setting": "AR DBD", "result": "no binding"}]}]}
